# Laboratory results: patent US20190224195A1, “Oral Capsule Composite Formulation of Dutasteride and Tadalafil” (Yuyu Pharma, Inc., priority 2016, published 2019)
# Tests used:
# [1] = Solubility test according to surfactant; format: physicochemical; settings: for solubility according to surfactants (in words): in PEG 6 glyceryl caprylate/caprate and PEG 8 caprylic/capric glyceride; for solubility at 24 h: organic solvent or mixture, thermodynamic from solid
# [2] = Solubility test in various oils; format: physicochemical; settings: for solubility at 24 h: oil or lipid, thermodynamic from solid; for solubility at 24 h / Solubility of Tadalafil: room temperature, 24 hours of stirring
# Experimental: Dutasteride and tadalafil were measured for solubility in various oils comprising soybean oil, castor oil, polyoxyl 6 apricot kernel oil, propyleneglycol monolaurate, propyleneglycol monocaprylate, glyceryl caprylate/caprate. In a 10-mL vial, 3 mL of an oil was stirred at room temperature with a magnetic bar during which about 100 mg of the main ingredient was added, followed by stirring at 500 rpm or higher. After 24 hours of stirring, centrifugation was carried out and the supernatant thus formed was taken and subjected to liquid chromatography to quantitate the main ingredient dissolved in the oil phase.
compound,measurement,setting,value
"C[C@]12C=CC(=O)N[C@@H]1CC[C@@H]1[C@@H]2CC[C@]2(C)[C@@H](C(=O)Nc3cc(C(F)(F)F)ccc3C(F)(F)F)CC[C@@H]12 [Dutasteride, 17β-N-(2,5-bis(trifluoromethyl))phenylcarbomoyl-4-aza-5α-androst-1-en-3-one]",solubility according to surfactants (in words),[1],high solubility
same,solubility at 24 h,"[1]; in PEG 6 glyceryl carpylate/caprate, read-out: Dutasteride Solubility",3550 µg/mL
same,solubility at 24 h,"[1]; in PEG 8 caprylic/capric glyceride, read-out: Dutasteride Solubility",3860 µg/mL
same,solubility at 24 h,"[1]; in PEG 35 castor oil, read-out: Dutasteride Solubility",1990 µg/mL
same,solubility at 24 h,"[1]; in Poloxamer 124, read-out: Dutasteride Solubility",1120 µg/mL
same,solubility at 24 h,"[1]; in Polysorbate 60, read-out: Dutasteride Solubility",1770 µg/mL
same,solubility at 24 h,"[1]; in Polysorbate 80, read-out: Dutasteride Solubility",1360 µg/mL
same,solubility at 24 h,"[2]; in Castor oil, read-out: Solubility of Dutasteride",1500 µg/mL
same,solubility at 24 h,"[2]; in Glyceryl caprylate/caprate, read-out: Solubility of Dutasteride",14300 µg/mL
same,solubility at 24 h,"[2]; in Polyoxyl 6 apricot kernel oil, read-out: Solubility of Dutasteride",2550 µg/mL
same,solubility at 24 h,"[2]; in Propylene glycol monocaprylate, read-out: Solubility of Dutasteride",26300 µg/mL
"CN1CC(=O)N2[C@H](c3ccc4c(c3)OCO4)c3[nH]c4ccccc4c3C[C@@H]2C1=O [Tadalafil, 6R-trans-6-(1,3-benzodioxol-5-yl)-2,3,6,7,12,12a-hexahydro-2-methyl-pyrazino [1′,2′:1,6]pyrido[3,4-b]indole-1,4-dione]",solubility according to surfactants (in words),[1],high solubility
same,solubility at 24 h,"[1]; in PEG 6 glyceryl carpylate/caprate, read-out: Tadalafil Solubility",9130 µg/mL
same,solubility at 24 h,"[1]; in PEG 8 caprylic/capric glyceride, read-out: Tadalafil Solubility",8810 µg/mL
same,solubility at 24 h,"[1]; in PEG 35 castor oil, read-out: Tadalafil Solubility",8100 µg/mL
same,solubility at 24 h,"[1]; in Poloxamer 124, read-out: Tadalafil Solubility",6230 µg/mL
same,solubility at 24 h,"[1]; in Polysorbate 60, read-out: Tadalafil Solubility",10700 µg/mL
same,solubility at 24 h,"[1]; in Polysorbate 80, read-out: Tadalafil Solubility",9650 µg/mL
same,Solubility of Tadalafil,[2]; in Glyceryl caprylate/caprate,4130 µg/mL
same,Solubility of Tadalafil,[2]; in Polyoxyl 6 apricot kernel oil,1120 µg/mL
same,fold greater solubility than the other oils,"[2]; in glyceryl caprylate/caprate and propylene glycol monocaprylate versus castor oil, soybean oil, polyoxyl 6 apricot kernel oil",≥ 4 fold
same,solubility at 24 h,"[2]; in Propylene glycol monocaprylate, read-out: Solubility of Tadalafil",4610 µg/mL
